Assay results from patent publication US11000505B2 (priority 2010, dated 2021).
Values joined by “and” are separate entries in the source; they are usually repeats but may differ in a detail not shown here. Equal values may be shown once.

Columns and labels:
[1] = test system: pial artery; details: pig, in vivo
[2] = target: T1, cloned human mu receptor (Homo sapiens, UniProt P35372); experiment: In-vitro affinity determination, [3H]DAMGO competition; format: binding
T1 construct: expressed in transfected cells; host or cells: HEK cells (NIMH PDSP)

[3] = test system: mu, kappa and delta receptors; details: competition binding assays; cited from earlier work
[4] = target: T2, cloned rat kappa receptor (Rattus norvegicus, UniProt P34975); experiment: biochemical; format: binding
T2 construct: expressed in transfected cells; host or cells: HEK cells (NIMH PDSP)

[5] = test system: pial artery; details: pig, in vivo; remark: listed apart in the source
[6] = test system: cAMP; experiment: cAMP in CSF by ELISA (Example 7); format: in vivo, newborn pigs
Excerpt: Newborn pigs (aged up to 6 days, 1.1-2.0 kg) of both genders were used for this study. Protocols were approved by the Institutional Animal Care and Use Committee of the University of Pennsylvania (Philadelphia). The newborn piglet model was used because its brain is gyrencepahalic and contains more white matter than grey matter, which is similar to that of humans. Furthermore, the head is large enough for the insertion of a cranial window and vascular visualization. Animals were induced with isoflurane (1-2 minimum alveolar concentration) and maintained with α-chloralose (80-100 mg/kg supplemented with 5 mg/kg·h, IV). Both femoral arteries were catheterized to monitor blood pressure and blood gas to maintain a constant carbon dioxide and pH. A catheter was inserted into the right femoral vein for medication administration. Animals were ventilated with room air after tracheal intubation. A heating pad was used to maintain the rectal temperature of animals at 37-39° C. A closed cranial window on the top of the head of the piglet was placed for direct pial artery visualization and diameter measurement. The closed cranial window consisted of three parts: a stainless steel ring, a circular glass cover slip, and three ports consisting of 17-gauge hypodermic needles attached to three precut holes in the stainless steel ring. CSF was collected through a cranial window port for cAMP measurement in some animals. […] Vascular diameter was measured from a video monitor that was connected to the camera with a video microscaler (VPA 550; For-A-Corp., Los Angeles, Calif.) by the investigator who administered the medication.
The cerebral cortical periarachnoid CSF samples were collected before and 10 min afterward administration of herkinorin and NTP to measure the cAMP level. […] Commercially available ELISA kits (Assay Designs, Ann Arbor, Mich.) were used to quantify cAMP concentrations.

[7] = test system: pial artery; format: in vivo, newborn pigs; details: pig, in vivo
[8] = test system: pial artery; format: in vivo, piglets; details: in vivo

T1 sequence (P35372 whole entry): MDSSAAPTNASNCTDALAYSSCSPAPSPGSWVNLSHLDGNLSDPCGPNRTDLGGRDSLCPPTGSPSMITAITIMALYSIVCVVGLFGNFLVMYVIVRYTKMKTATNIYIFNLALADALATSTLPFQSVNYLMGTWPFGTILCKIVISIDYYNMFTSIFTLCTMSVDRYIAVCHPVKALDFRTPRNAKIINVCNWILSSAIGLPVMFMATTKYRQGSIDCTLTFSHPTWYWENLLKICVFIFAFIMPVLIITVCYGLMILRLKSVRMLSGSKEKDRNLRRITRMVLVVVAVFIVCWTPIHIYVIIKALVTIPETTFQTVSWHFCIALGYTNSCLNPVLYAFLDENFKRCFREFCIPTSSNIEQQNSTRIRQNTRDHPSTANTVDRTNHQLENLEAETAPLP
T2 sequence (P34975 whole entry): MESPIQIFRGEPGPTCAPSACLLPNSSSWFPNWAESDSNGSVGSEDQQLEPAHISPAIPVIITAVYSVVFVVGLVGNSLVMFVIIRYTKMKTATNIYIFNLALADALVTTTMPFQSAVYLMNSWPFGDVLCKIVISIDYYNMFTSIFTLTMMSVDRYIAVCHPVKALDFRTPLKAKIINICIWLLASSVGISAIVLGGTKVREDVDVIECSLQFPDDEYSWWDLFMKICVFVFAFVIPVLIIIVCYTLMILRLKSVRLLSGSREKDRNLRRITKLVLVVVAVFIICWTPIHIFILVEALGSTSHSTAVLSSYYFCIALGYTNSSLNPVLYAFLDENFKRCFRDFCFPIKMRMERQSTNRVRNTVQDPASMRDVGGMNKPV

## O=c1[nH]c2cc(C(F)(F)F)ccc2n1-c1cc(C(F)(F)F)ccc1O [NS1619, reference compound]
[1]
  dilation response in presence of iberiotoxin: blocked the dilation effects of NS1619

## CC1(C)Oc2ccc(C#N)cc2C(N2CCCC2=O)C1O (stereo not drawn) [cromakalim, reference compound]
[1]
  dilation response in presence of glibenclamide: blocked the dilation in response to cromakalim

## COC(=O)[C@@H]1C[C@H](OC(=O)c2ccccc2)C(=O)[C@H]2[C@@]1(C)CC[C@H]1C(=O)O[C@H](c3ccoc3)C[C@]21C [herkinorin]
[2]; HEK cells over-expressing receptor
  Ki: 45 nM
[2]; mu stronger than kappa
  binding affinity to mu receptor relative to kappa receptor: approximately 4 fold
[3]
  selectivity for mu over delta receptors: approximately 98 fold
  selectivity for mu over kappa receptors: approximately 8 fold
[4]
  Ki: 184 nM
[5]
  concentration required to effectively dilate pial arteries: 0.1 nM
  dilation in presence of NTP: totally abolished by norbinaltorphimine
  dilation in presence of Rp-cAMPS: blunted herkinorin-mediated pial artery dilation
  dilation in presence of β-FNA: not affected by β-FNA
  pial artery diameter dilation: 10.6% and 17.8%
  systemic blood pressure: without significant systemic blood pressure variation
[6]; 10 min after administration
  cAMP levels in the CSF: significantly increased cAMP levels in the CSF
[6]; pig, in vivo
  elevated cAMP levels with NTP: blocked by NTP
  elevated cAMP levels with β-FNA: not affected after β-FNA administration

## CC(C)NCC(O)c1ccc(O)c(O)c1 (stereo not drawn) [isoproterenol, reference compound]
[7]
  pial artery response to the agent before and after HI: no change was observed
[5]
  dilation in presence of NTP: unchanged by either NTP or β-FNA
  dilation in presence of β-FNA: unchanged by either NTP or β-FNA
[1]
  dilation response in presence of naloxone: unaffected
  dilation response in presence of norbinaltorphimine: unaffected
[8]
  pial artery response to the agent before and after hypoxia/ischemia: unchanged in all groups

## methionine enkephalin [reference compound]
[1]
  dilation response in presence of naloxone: blocked the dilation effects
  dilation response in presence of norbinaltorphimine: blocked the dilation effects
